Results: patent US20070172453A1, “Tolerogenic approach for type 1 diabetes” (priority 2002, published 2007)

Legend:
[1] = test system: peripheral blood mononuclear cells (PBMCs); assay: ELISpot of IL-10 secreting cells in PBMCs from healthy controls and adult Type 1 diabetics; assay type: cell-based, human; details: 50 μM, 48h
Description: In comparison to the Insulin B9-23 peptide (SEQ ID NO:3), the presentation of IGF-2 B11-25 (SEQ ID NO:2) increases the number of IL-10 secreting cells in peripheral blood mononuclear cells (PBMCs) from adult Type I diabetics. PBMCs were isolated by a conventional method from the blood of 6 healthy controls and 18 adult Type 1 diabetic patients. The PBMCs were cultured for 48h in 96-well dishes in the presence of IGF-2 B11-25 (SEQ ID NO:2)(50 μM) or […] (50 μM).
The data are presented in FIG. 4 as the number of spots per 10^5 cells. Statistical analyses were performed using Wilcoxon's test.

[2] = test system: peripheral blood mononuclear cells (PBMCs); assay: ELISPOT of IFN-γ and IL-10 secreting cells in PBMCs of DQ8+ type 1 diabetic adolescents; assay type: cell-based, human; details: for number of IFN-γ secreting cells / number of IL-10 secreting cells / ratio of IL-10/IFN-γ: peptide 50 μM, DQ8+ type 1 diabetic adolescents; for number of IFN-γ secreting cells / number of IL-10 secreting cells: 48 hours, 1×10^5 PBMCs/well, ±SEM
Description: Ten diabetic patients were selected (6 females, 4 males; age range: 7-16 years of age) which were positive for the DQ8 allele. With the assistance of endocrine pediatricians, appropriate arrangements were made for two sampling sessions. Written and informed consent was obtained from the parents of the adolescents. For each patient, 20 ml of blood was collected in tubes containing EDTA. These tubes were immediately sent to Cypro SA (Brussels) where peripheral blood mononuclear cells (PBMCs) were isolated using the Lymphoprep™ (Invitrogen) isolation technique.
ELISPOT Assays (Cypro): The general methodology has been described by Tary-Lehmann et al. (see, e.g., Tary-Lahmann et al. (1998) Transplantation 66:219-224). Briefly, PBMCs were seeded at a concentration of 1×10^5/well in 96-well plates coated with anti-human IFN-γ monoclonal antibody (mAb) (Serpime/Nodia) or anti-IL-10 mAb (BD-Pharmingen) in the presence or absence of either PHA (Sigma, 1 μg/ml)+LPS (Sigma, 1 μg/ml), Purified Protein Derivative (PPD, 5 μg/ml), Insulin B9-23 (SEQ ID NO:3 ) (10 and 50 μM), IGF-2 B11-25 (SEQ ID NO:2 )(10 and 50 μM After 48 hours of incubation at 37° C., 5% CO2 on a plane surface, wells were washed three times with PBS Tween 0.25%, then blot dried.
After 1 hour-incubation in a humid room at ambient temperature, the plates were washed and the substrate AEC (3-amino-9-ethylcarazole)+30% H2O2 were added. After 15 minutes (for IFN-γ) or 30 minutes (for IL-10) of incubation at ambient temperature, spots appeared and the reaction was stopped by washing the plates under water. After drying, the spots were counted by image analyzer assisted by computer with filters specific for each cytokine.
A Wilcoxon test was used for statistical analyses (non-parametric paired values).

PBMCs [3] = assay: IL10 transcription in PBMCs by TaqMan real-time PCR; assay type: cell-based, human; details: 50 μM, 20 hours
Description: Total RNA was extracted with the RNeasy Mini Kit (Qiagen, Calif., USA) from PBMCs isolated from 10 healthy controls and from 11 Type 1 diabetics, and cultured for 20 hours with IGF-2 B11-25 (SEQ ID NO:2)(50 μM) or Insulin B9-23 (SEQ ID NO:3 ) (50 μM). Total RNA was measured with a Nanodrop (NanoDrop Technologies, Wilmington, USA). Reverse transcription was performed with Transcriptor First Strand cDNA Synthesis Kit (Roche, Germany). PCR was performed with the following probes:
IL10 transcripts were then quantified using a TaqMan procedure. Standard curves were established from a lot of plasmid containing IL10 according to the procedure described by other authors (Giulietti et al., Methods 25: 386, 2001). […] A strong positive relationship was evidenced between IL-10 concentrations as measured by ELISA and the number of IL10 transcripts as quantified by real-time PCR (R^2=0.62, P<0.0001; Spearman's test). Conclusions

[4] = test system: spleen cells from Igf2-/- and wt mice; assay: IL-2 production by IGF-2-specific T cells (spleen cells) after immunization and in vitro stimulation; assay type: cell-based, mouse; details: spleen cells in culture with murine IGF-2-derived B11-25 after two i.p. injections
Description: (§1) Mice immunization. Igf2^−/− and wt mice were injected i.p. with 5 μg of rmIGF-2 (R&D Systems) or with 5 μg of human insulin (Roche) to study the humoral response and with 50 μg of murine IGF-2-derived B11-25 (NEOSYSTEM)(SEQ ID NO:2) to analyze the cellular response. CFA (Sigma-Aldrich) (v/v) is used for the first injection and IFA (Sigma-Aldrich) (v/v) for the other injections. For humoral response, three injections separated by 20 days were performed. Blood test was performed 15 days after each injection in agreement with the Liege University ethic committee. For cellular response, two injections separated by 15 days were performed.
IL-2 production. After 48, 72, and 96 h of MLR or after 24 and 48 h of specific T cell culture, 800 μl were removed of each condition and IL-2 production released by Igf2^−/− and wt T cells in MLR was assessed by specific ELISA (Biosource Europe).
Statistical analyses. The t test was used to compare Igf2^−/− and wt mice in IL-2 production and Ab production after immunization. The level of significance was p<0.05.

PBMCs [5] = assay: IL-10 concentration in PBMC culture supernatants by ELISA; assay type: cell-based, human; details: 20h-culture
Description: PBMCs were isolated from the blood of 10 healthy controls and 13 adult type 1 diabetics. After a 20h-culture, IL-10 concentration in the supernatants was measured using a specific ELISA (BioSource, Nivelles, Belgium).

Igf2-/- and wt mice [6] = assay: Anti-IGF-2 humoral response after i.p. immunization of Igf2-/- and wt mice (ELISA); assay type: in vivo, mouse; details: i.p. immunization 5 μg
Description: as §1
(§2) Dosage of anti-IGF-2 and anti-insulin Abs. Abs against IGF-2 and insulin were detected and quantified using a specific ELISA procedure. Microplates (Nunc Maxisorp 468667; VVWR International) were incubated overnight at 4° C. with 2 μg/ml rmIGF-2 (R&D Systems) or 5 μg/ml human insulin (Roche) in 100 μl of 0.1 M NaHCO3 (pH 8.4). From this step, the procedure was identical between the two kinds of ELISA. SL buffer (0.01 M phosphate buffer, pH 7.4) was used as the basic buffer, and all reactions were incubated at 37° C. under agitation. […] The reaction was stopped with 50 μl of 0.4 N HCl, and the absorbance was measured at 450-620 nm with a spectrophotometer.

[7] = test system: CD4-mediated, HLA-II restricted immune response; details: patients with IDDM; cited from earlier work
NOD mice = details: cited from earlier work
[8] = cited from earlier work
Igf2-/- and wt mice [9] = assay: Anti-insulin humoral response after i.p. immunization of Igf2-/- and wt mice (ELISA); assay type: in vivo, mouse; details: three i.p. injections, mice with day 0 anti-insulin Ab lower than 1 in OD
Description: as §1
as §2, with “spectrophotometer. […]” for “spectrophotometer.”

## GELVDTLQFVCGDRG (listed as Homo sapiens) [IGF-2 B11-25]
[1]; PBMCs from healthy controls
  number of IL-10 secreting cells versus Insulin B9-23: no significant difference
[1]; PBMCs of adult Type 1 diabetics
  number of IL-10 secreting cells versus Insulin B9-23: significantly higher
[2]; 50 μM, versus insulin B9-23
  ratio IL-10/IFN-γ, fold higher than after insulin B9-23: ~7 fold
[2]
  number of IFN-γ secreting cells: 45.60±11.67
  number of IL-10 secreting cells: 1162±208.6
  ratio of IL-10/IFN-γ: 67.36±37.58
PBMCs [3]; PBMCs from adult Type 1 diabetics
  IL10 transcription: very significantly increases
PBMCs [3]; PBMCs from healthy controls
  IL10 transcription: very significantly increases
[4]
  IL-2 production, Igf2-/- compared with wt mice: significant increase of IL-2 production
PBMCs [5]; PBMC cultures from Type 1 diabetics
  IL-10 concentration in supernatants versus basal conditions or Insulin B9-23: significantly increased
PBMCs [5]; PBMC cultures from healthy controls
  IL-10 concentration in supernatants versus basal conditions or Insulin B9-23: significantly increased

## IGF-2: rmIGF-2 (R&D Systems), insulin-like growth factor 2 used for mice immunization
Igf2-/- and wt mice [6]; Igf2-deficient mice
  anti-IGF-2 humoral response: rapidly induced anti-IGF-2 Abs
Igf2-/- and wt mice [6]; wt mice
  anti-IGF-2 T-dependent humoral response (IgG1, IgG2a, IgG2b): no T-dependent response was observed

## SHLVEALYLVCGERG (listed as Homo sapiens) [insulin B9-23, reference compound]
[2]
  number of IFN-γ secreting cells: 88.90±23.82
  number of IL-10 secreting cells: 701.8±160.9
  ratio of IL-10/IFN-γ: 10.22±1.99
[7]
  IFN-γ production in response to peptide presentation: high production of IFN-γ
NOD mice
  anaphylaxis: induces fatal anaphylaxis
  incidence of diabetes: accelerates incidence of diabetes

## insulin: human insulin (Roche) for mice immunization; insulin given orally or subcutaneously in cited trials
[8]; oral administration, recent-onset IDDM
  protection of residual β cell function: failed to protect the residual β cell function
[8]; subcutaneous administration, high-risk relatives of patients with IDDM
  delay or prevention of onset of disease: did not delay or prevent the onset of disease
Igf2-/- and wt mice [9]
  anti-insulin Ig-specific humoral response, Igf2-/- compared with Igf2+/+ mice: higher anti-insulin Ig-specific humoral response
